Test results: US6815460B2, “Process for preparing prodrugs of benzenesulfonamide-containing cox-2 inhibitors” (Pharmacia Corporation, priority 1996, dated 2004)
Counter-ions that a name gives are not always drawn.

First: CCC(=O)NS(=O)(=O)c1ccc(-n2nc(C(F)(F)F)cc2-c2ccc(Cl)cc2)cc1 [Example 33, N-[[4-[5-(4-Chlorophenyl)-3-(trifluoromethyl)-1H-pyrazol-1-yl]phenyl]sulfonyl]propanamide]
Second: CC(=O)NS(=O)(=O)c1ccc(-n2nc(C(F)(F)F)cc2-c2ccc(Cl)cc2)cc1 [Example 37, N-[[4-[5-(4-Chlorophenyl)-3-(trifluoromethyl)-1H-pyrazol-1-yl]phenyl]sulfonyl]acetamide]
The melting point of the first is lower: 77.9 to 85.1 °C for the first, 161.9 to 162.7 °C for the second.

First: COC(=O)C(=O)NS(=O)(=O)c1ccc(-c2c(-c3ccccc3)noc2C)cc1 [Example 50, Methyl [[[4-(5-methyl-3-phenylisoxazol-4-yl)phenyl]sulfonyl]amino]oxoacetate]
Second: CC(=O)NS(=O)(=O)c1ccc(-c2c(-c3ccccc3)noc2C)cc1 [Example 39, N-[[4-[5-Methyl-3-phenylisoxazol-4-yl]phenyl]sulfonyl]acetamide]
The melting point of the first is higher: 171.1 to 172.3 °C for the first, 169.3 to 170.6 °C for the second.

First: CCCC(=O)NS(=O)(=O)c1ccc(-c2c(-c3ccccc3)noc2C(F)F)cc1 [Example 56, N-[[4-[5-(Difluoromethyl)-3-phenylisoxazol-4-yl]phenyl]sulfonyl]butanamide]
Second: CCC(=O)NS(=O)(=O)c1ccc(-c2c(-c3ccccc3)noc2C(F)F)cc1 [Example 54, N-[[4-[5-(Difluoromethyl)-3-phenylisoxazol-4-yl]phenyl]sulfonyl]propanamide]
The melting point of the first is higher: 154.9 to 155.9 °C for the first, 136.9 to 141 °C for the second.

First: CCC(=O)NS(=O)(=O)c1ccc(-n2cc(C(F)(F)F)nc2-c2cccnc2C)cc1 [Example 84, N-[[4-[2-(2-Methylpyridin-3-yl)-4-trifluoromethylimidazol-1-yl]phenyl]sulfonyl]propanamide]
Second: CC(=O)NS(=O)(=O)c1ccc(-n2cc(C(F)(F)F)nc2-c2cccnc2C)cc1 [Example 5, N-[[4-[2-(2-Methylpyridin-3-yl)-4-(trifluoromethyl)-1H-imidazol-1-yl]phenyl]sulfonyl]acetamide]
The melting point of the first is lower: 217 to 218 °C for the first, 243 to 245 °C for the second.

Compared with `Cc1onc(-c2ccccc2)c1-c1ccc(S(=O)(=O)NCC(=O)O)cc1.O=C(O)O` [Example 79, N-[[4-(5-Methyl-3-phenylisoxazol-4-yl)phenyl]sulfonyl]glycine], `Cc1onc(-c2ccccc2)c1-c1ccc(S(=O)(=O)NC(=O)CCC(=O)O)cc1` [Example 58, 4-[[[4-(5-Methyl-3-phenylisoxazol-4-yl)phenyl]sulfonyl]amino]-4-oxobutanoic Acid] is lower in melting point: 242 to 248 °C for the first, 158.4 to 165.4 °C for the second.

First: COc1ccc2c(c1F)CSc1c(C(F)(F)F)nn(-c3ccc(S(=O)(=O)NC(C)=O)cc3)c1-2.[Na]
Second: COc1ccc(-c2cc(C(F)F)nn2-c2ccc(S(=O)(=O)NC(C)=O)cc2)cc1F [Example 46, N-[[4-[3-(Difluoromethyl)-5-(3-fluoro-4-methoxyphenyl)-1H-pyrazol-1-yl]phenyl]sulfonyl]acetamide]
The melting point of the first is higher: 183 to 191.1 °C for the first, 173 to 175 °C for the second.

First: Cc1onc(-c2ccccc2)c1-c1ccc(S(=O)(=O)NC(=O)C(C)(C)C)cc1 [Example 21, 2,2-Dimethyl-N-[[4-(5-methyl-3-phenylisoxazol-4-yl)phenyl]sulfonyl]propanamide]
Second: Cc1onc(-c2ccccc2)c1-c1ccc(S(=O)(=O)NC(=O)OC(C)(C)C)cc1 [Example 62, 1,1-Dimethylethyl N-[[4-(5-methyl-3-phenylisoxazol-4-yl)phenyl]sulfonyl]carbamate]
The melting point of the first is higher: 190.5 to 191.1 °C for the first, 168 to 171 °C for the second.

Compared with `Cc1onc(-c2ccccc2)c1-c1ccc(S(=O)(=O)NC(=O)CN)cc1` [Example 81, 2-Amino-N-[[4-(5-methyl-3-phenylisoxazol-4-yl)phenyl]sulfonyl]acetamide], `CCCC(=O)NS(=O)(=O)c1ccc(-c2c(-c3ccccc3)noc2C)cc1` [Example 24, N-[[4-(5-Methyl-3-phenylisoxazol-4-yl)phenyl]sulfonyl]butanamide] is lower in melting point: 230.7 to 234.7 °C for the first, 173.2 °C for the second.

First: CCCCC(=O)NS(=O)(=O)c1ccc(-c2c(-c3ccccc3)noc2C)cc1 [Example 26, N-[[4-(5-Methyl-3-phenylisoxazol-4-yl)phenyl]sulfonyl]pentanamide]
Second: CCCC(=O)NS(=O)(=O)c1ccc(-c2c(-c3ccccc3)noc2C)cc1 (as salt: sodium) [Example 25, N-[[4-(5-Methyl-3-phenylisoxazol-4-yl)phenyl]sulfonyl]butanamide, Sodium Salt]
The melting point of the first is lower: 134.1 to 136.5 °C for the first, 273.5 to 277.7 °C for the second.

First: CCCC(=O)NS(=O)(=O)c1ccc(-n2cc(C(F)(F)F)nc2-c2cncc(C)c2)cc1 [Example 7, N-[[4-[2-(5-Methylpyridin-3-yl)-4-(trifluoromethyl)-1H-imidazol-1-yl]phenyl]sulfonyl]butanamide]
Second: CC(=O)NS(=O)(=O)c1ccc(-n2cc(C(F)(F)F)nc2-c2cncc(C)c2)cc1 [Example 3, N-[[4-[2-(5-Methylpyridin-3-yl)-4-(trifluoromethyl)-1H-imidazol-1-yl]phenyl]sulfonyl]acetamide]
The melting point of the first is lower: 203 to 204 °C for the first, 268 to 270 °C for the second.

First: Cc1onc(-c2ccccc2)c1-c1ccc(S(=O)(=O)NC=O)cc1 [Example 60, N-[[4-(5-Methyl-3-phenylisoxazol-4-yl)phenyl]sulfonyl]formamide]
Second: CC(=O)NS(=O)(=O)c1ccc(-c2c(-c3ccccc3)noc2C)cc1.[K]
The melting point of the first is lower: 111 to 122 °C for the first, 279.7 to 283.7 °C for the second.

First: Cc1onc(-c2ccccc2)c1-c1ccc(S(=O)(=O)NC(=O)c2ccccc2)cc1 [Example 19, N-[[4-(5-Methyl-3-phenylisoxazol-4-yl)phenyl]sulfonyl]benzamide]
Second: Cc1onc(-c2ccccc2)c1-c1ccc(S(=O)(=O)NC(=O)C(C)C)cc1 [Example 15, 2-Methyl-N-[[4-(5-methyl-3-phenylisoxazol-4-yl)phenyl]sulfonyl]propanamide]
The melting point of the first is higher: 208.8 to 210.2 °C for the first, 115 to 115.6 °C for the second.

First: CCC(=O)NS(=O)(=O)c1ccc(-c2c(-c3ccccc3)noc2CO)cc1.[Na]
Second: CC(=O)NS(=O)(=O)c1ccc(-c2c(-c3ccccc3)noc2CO)cc1 [Example 74, N-[[4-[5-Hydroxymethyl-3-phenylisoxaxzol-4-yl]phenyl]sulfonyl]acetamide]
The melting point of the first is higher: 153.5 to 157.1 °C for the first, 94 to 103 °C for the second.

First: COCCC(=O)NS(=O)(=O)c1ccc(-c2c(-c3ccccc3)noc2C)cc1 [Example 29, 3-Methoxy-N-[[4-(5-methyl-3-phenylisoxazol-4-yl)phenyl]sulfonyl]propanamide]
Second: CCOCC(=O)NS(=O)(=O)c1ccc(-c2c(-c3ccccc3)noc2C)cc1 [Example 31, 2-Ethoxy-N-[[4-(5-methyl-3-phenylisoxazol-4-yl)phenyl]sulfonyl]acetamide]
The melting point of the first is higher: 139.7 to 140.9 °C for the first, 131.3 to 132.2 °C for the second.

Compared with `CCC(=O)NS(=O)(=O)c1ccc(-c2c(C)c(C)nn2-c2ccccc2)cc1` [Example 68, N-[[4-[3,4-Dimethyl-1-phenyl-1H-pyrazol-5-yl]phenyl]sulfonyl]propanamide], `CCC(=O)NS(=O)(=O)c1ccc(C2=C(c3ccccc3)COC2=O)cc1` [Example 83] is lower in melting point: 187.4 to 188.7 °C for the first, 182.3 to 183.4 °C for the second.

Compared with `CC(=O)NS(=O)(=O)c1ccc(-n2cc(C(F)(F)F)nc2-c2cc(C)cc(Cl)c2)cc1` [Example 11, N-[[4-[2-(3-Chloro-5-methylphenyl)-4-(trifluoromethyl)-1H-imidazol-1-yl]phenyl]sulfonyl]acetamide], `CC(=O)NS(=O)(=O)c1ccc(-n2cc(C(F)(F)F)nc2-c2cccnc2)cc1` [Example 1, N-[[4-[2-(3-Pyridinyl)-4-(trifluoromethyl)-1H-imidazol-1-yl]phenyl]sulfonyl]acetamide] is higher in melting point: 232 to 235 °C for the first, 244 to 246 °C for the second.

First: CNS(=O)(=O)c1ccc(C2=C(c3ccc(F)cc3)CCC2)cc1 [Example 64, 4-[2-(4-Fluorophenyl)cyclopenten-1-yl]-N-methylbenzenesulfonamide]
Second: CNS(=O)(=O)c1ccc(-n2cccc2-c2ccc(F)cc2)cc1 [Example 78, 4-[2-(4-Fluorophenyl)-1H-pyrrol-1-yl]-N-methylbenzenesulfonamide]
The melting point of the first is lower: 121 to 122 °C for the first, 174 °C for the second.

Compared with `CC(=O)NS(=O)(=O)c1ccc(-n2nc(C(F)(F)F)cc2-c2ccc(Cl)cc2)cc1.[Na]`, `CC(=O)NS(=O)(=O)c1ccc(-c2c(-c3cccc(F)c3)noc2C)cc1` (as salt: sodium) [Example 13, N-[[4-[3-(3-Fluorophenyl)-5-methylisoxazol-4-yl]phenyl]sulfonyl]acetamide] is lower in melting point: 269.8 to 272 °C for the first, 112 to 131 °C for the second.

First: CC(=O)[N-]S(=O)(=O)c1ccc(-n2cc(C(F)(F)F)nc2-c2cncc(C)c2)cc1.[Na+] [Example 4, N-[[4-[2-(5-Methylpyridin-3-yl)-4-(trifluoromethyl)-1H-imidazol-1-yl]phenyl]sulfonyl]acetamide, Sodium Salt]
Second: CCOCC(=O)NS(=O)(=O)c1ccc(-c2c(-c3ccccc3)noc2C)cc1.[Na]
The melting point of the first is higher: 278 to 281 °C for the first, 207.2 to 210 °C for the second.

First: CC(=O)NCC(=O)NS(=O)(=O)c1ccc(-c2c(-c3ccccc3)noc2C)cc1 [Example 82, 2-(Acetylamino)-N-[[4-(5-methyl-3-phenylisoxazol-4-yl)phenyl]sulfonyl]acetamide]
Second: CC(=O)NS(=O)(=O)c1ccc(-c2c(-c3ccccc3)noc2COC(C)=O)cc1 [Example 73, N-[[4-[5-Acetoxymethyl-3-phenylisoxaxzol-4-yl]phenyl]sulfonyl]acetamide]
The melting point of the first is higher: 218.2 to 219.3 °C for the first, 137 to 139 °C for the second.

For `COc1ccc2c(c1F)CSc1c(C(F)F)nn(-c3ccc(S(=O)(=O)NC(C)=O)cc3)c1-2.[Na]`, the melting point was > 300 °C.
For `CCC(=O)[N-]S(=O)(=O)c1ccc(-n2cc(C(F)(F)F)nc2-c2cccnc2C)cc1.[Na+]` [Example 85, N-[[4-(2-(2-Methylpyridin-3-yl)-4-trifluoromethylimidazol-1-yl]phenyl]sulfonyl]propanamide, Sodium Salt], the melting point was 298 °C (dec.).
For `Cc1onc(-c2ccccc2)c1-c1ccc(S(=O)(=O)NCC(=O)[O-])cc1.[Na+]` [Example 80, N-[[4-(5-Methyl-3-phenylisoxazol-4-yl)phenyl]sulfonyl]glycine, Sodium Salt], the melting point was 216 °C (dec.).
